Reference: ChEMBL document CHEMBL3046292, “The effects of luteolin on phenoloxidase and the growth of Spodoptera exigua (Hubner) larvae (Lepidoptera: Noctuidae)” (J Pestic Sci, 2010)
In brackets after ≈: the same amount, converted by molar mass. Activity calls are given as the source filed them. The calls are words filed in the database; no cut-off is given here.

Key:
Spodoptera exigua [1] = assay: Insecticidal activity against third-instar Spodoptera exigua larvae assessed as mortality at 2 g/l measured after 9 days; type: functional; conditions: 216 h
Spodoptera exigua [2] = assay: Insecticidal activity against third-instar Spodoptera exigua larvae assessed as mortality at 4 g/l measured after 7 days; type: functional; conditions: 168 h
Spodoptera exigua [3] = assay: Insecticidal activity against third-instar Spodoptera exigua larvae assessed as mortality at 2 g/l measured after 11 days; type: functional; conditions: 264 h
[4] = biological target: T1, Phenol oxidase (Plutella xylostella) (UniProt B5U2Z5); assay: Inhibition of Spodoptera exigua larvae phenoloxidase assessed as remaining activity at 0.45 mmol/l
T1 sequence (whole entry): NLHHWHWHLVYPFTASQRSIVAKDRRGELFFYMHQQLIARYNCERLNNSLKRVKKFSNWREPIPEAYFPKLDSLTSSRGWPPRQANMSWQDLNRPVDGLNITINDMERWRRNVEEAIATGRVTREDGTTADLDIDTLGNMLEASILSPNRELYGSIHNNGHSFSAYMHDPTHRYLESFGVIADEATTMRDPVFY

Spodoptera exigua [5] = assay: Insecticidal activity against third-instar Spodoptera exigua larvae assessed as mortality at 16 g/l measured after 11 days; type: functional; conditions: 264 h
Spodoptera exigua [6] = assay: Insecticidal activity against third-instar Spodoptera exigua larvae assessed as eclosion at 0.4 g/l (reference value: 96.67 +/- 1.40%); type: functional
Spodoptera exigua [7] = assay: Insecticidal activity against third-instar Spodoptera exigua larvae assessed as mortality treated after 9 days; type: functional; conditions: 216 h
Spodoptera exigua [8] = assay: Insecticidal activity against third-instar Spodoptera exigua larvae assessed as per pupa weight at 0.8 g/l by pupa weight inhibition assay (reference value: 0.1054 +/- 0.01 g/pupae); type: functional
Spodoptera exigua [9] = assay: Insecticidal activity against third-instar Spodoptera exigua larvae assessed as mortality at 4 g/l measured after 11 days; type: functional; conditions: 264 h
Spodoptera exigua [10] = assay: Insecticidal activity against third-instar Spodoptera exigua larvae assessed as mortality at 4 g/l measured after 5 days; type: functional; conditions: 120 h
Spodoptera exigua [11] = assay: Insecticidal activity against third-instar Spodoptera exigua larvae assessed as eclosion at 0.8 g/l (reference value: 96.67 +/- 1.40%); type: functional
Spodoptera exigua [12] = assay: Insecticidal activity against third-instar Spodoptera exigua larvae assessed as per pupa weight at 0.2 g/l by pupa weight inhibition assay (reference value: 0.1054 +/- 0.01 g/pupae); type: functional
Spodoptera exigua [13] = assay: Insecticidal activity against third-instar Spodoptera exigua larvae assessed as pupation at 0.2 g/l (reference value: 96.67 +/- 1.40%); type: functional
Spodoptera exigua [14] = assay: Insecticidal activity against third-instar Spodoptera exigua larvae assessed as inhibition of body weight increase at 8 g/l measured from 24 hr to 48 hr; type: functional
Spodoptera exigua [15] = assay: Insecticidal activity against third-instar Spodoptera exigua larvae assessed as mortality treated after 5 days; type: functional; conditions: 120 h
Spodoptera exigua [16] = assay: Insecticidal activity against third-instar Spodoptera exigua larvae assessed as pupation at 0.8 g/l (reference value: 96.67 +/- 1.40%); type: functional
[17] = biological target: T1, Phenol oxidase (Plutella xylostella); assay: Inhibition of Spodoptera exigua larvae phenoloxidase assessed as remaining activity at 0.15 mmol/l
Spodoptera exigua [18] = assay: Insecticidal activity against third-instar Spodoptera exigua larvae assessed as mortality at 8 g/l measured after 7 days; type: functional; conditions: 168 h
Spodoptera exigua [19] = assay: Insecticidal activity against third-instar Spodoptera exigua larvae assessed as mortality at 8 g/l measured after 5 days; type: functional; conditions: 120 h
Spodoptera exigua [20] = assay: Insecticidal activity against third-instar Spodoptera exigua larvae assessed as mortality at 8 g/l measured after 3 days; type: functional; conditions: 72 h
Spodoptera exigua [21] = assay: Insecticidal activity against third-instar Spodoptera exigua larvae assessed as per pupa weight at 1.6 g/l by pupa weight inhibition assay (reference value: 0.1054 +/- 0.01 g/pupae); type: functional
Spodoptera exigua [22] = assay: Insecticidal activity against third-instar Spodoptera exigua larvae assessed as mortality at 8 g/l measured after 9 days; type: functional; conditions: 216 h
Spodoptera exigua [23] = assay: Insecticidal activity against third-instar Spodoptera exigua larvae assessed as mortality at 16 g/l measured after 3 days; type: functional; conditions: 72 h
Spodoptera exigua [24] = assay: Insecticidal activity against third-instar Spodoptera exigua larvae assessed as per pupa weight at 0.1 g/l by pupa weight inhibition assay (reference value: 0.1054 +/- 0.01 g/pupae); type: functional
Spodoptera exigua [25] = assay: Insecticidal activity against third-instar Spodoptera exigua larvae assessed as mortality at 4 g/l measured after 9 days; type: functional; conditions: 216 h
Spodoptera exigua [26] = assay: Insecticidal activity against third-instar Spodoptera exigua larvae assessed as mortality at 2 g/l measured after 7 days; type: functional; conditions: 168 h
Spodoptera exigua [27] = assay: Insecticidal activity against third-instar Spodoptera exigua larvae assessed as mortality at 16 g/l measured after 9 days; type: functional; conditions: 216 h
Spodoptera exigua [28] = assay: Insecticidal activity against third-instar Spodoptera exigua larvae assessed as pupation at 0.4 g/l (reference value: 96.67 +/- 1.40%); type: functional
Spodoptera exigua [29] = assay: Insecticidal activity against third-instar Spodoptera exigua larvae assessed as eclosion at 0.2 g/l (reference value: 96.67 +/- 1.40%); type: functional
Spodoptera exigua [30] = assay: Insecticidal activity against third-instar Spodoptera exigua larvae assessed as mortality at 2 g/l measured after 5 days; type: functional; conditions: 120 h
Spodoptera exigua [31] = assay: Insecticidal activity against third-instar Spodoptera exigua larvae assessed as eclosion at 1.6 g/l (reference value: 96.67 +/- 1.40%); type: functional
Spodoptera exigua [32] = assay: Insecticidal activity against third-instar Spodoptera exigua larvae assessed as inhibition of body weight increase at 4 g/l measured from 24 hr to 48 hr; type: functional
Spodoptera exigua [33] = assay: Insecticidal activity against third-instar Spodoptera exigua larvae assessed as mortality at 4 g/l measured after 3 days; type: functional; conditions: 72 h
[34] = biological target: T1, Phenol oxidase (Plutella xylostella); assay: In vivo inhibition of Spodoptera exigua larvae phenoloxidase
Spodoptera exigua [35] = assay: Insecticidal activity against third-instar Spodoptera exigua larvae assessed as inhibition of body weight increase at 1 g/l measured from 24 hr to 48 hr; type: functional
Spodoptera exigua [36] = assay: Insecticidal activity against third-instar Spodoptera exigua larvae assessed as pupation at 0.1 g/l (reference value: 96.67 +/- 1.40%); type: functional
Spodoptera exigua [37] = assay: Insecticidal activity against third-instar Spodoptera exigua larvae assessed as per pupa weight at 0.4 g/l by pupa weight inhibition assay (reference value: 0.1054 +/- 0.01 g/pupae); type: functional
Spodoptera exigua [38] = assay: Insecticidal activity against third-instar Spodoptera exigua larvae assessed as mortality at 16 g/l measured after 7 days; type: functional; conditions: 168 h
Spodoptera exigua [39] = assay: Insecticidal activity against third-instar Spodoptera exigua larvae assessed as mortality at 16 g/l measured after 5 days; type: functional; conditions: 120 h
Spodoptera exigua [40] = assay: Insecticidal activity against third-instar Spodoptera exigua larvae assessed as eclosion at 0.1 g/l (reference value: 96.67 +/- 1.40%); type: functional
Spodoptera exigua [41] = assay: Insecticidal activity against third-instar Spodoptera exigua larvae assessed as mortality treated after 7 days; type: functional; conditions: 168 h
Spodoptera exigua [42] = assay: Insecticidal activity against third-instar Spodoptera exigua larvae assessed as inhibition of body weight increase at 2 g/l measured from 24 hr to 48 hr; type: functional
Spodoptera exigua [43] = assay: Insecticidal activity against third-instar Spodoptera exigua larvae assessed as pupation at 1.6 g/l (reference value: 96.67 +/- 1.40%); type: functional
Spodoptera exigua [44] = assay: Insecticidal activity against third-instar Spodoptera exigua larvae assessed as mortality treated after 11 days; type: functional; conditions: 264 h
Spodoptera exigua [45] = assay: Insecticidal activity against third-instar Spodoptera exigua larvae assessed as mortality at 2 g/l measured after 3 days; type: functional; conditions: 72 h
Spodoptera exigua [46] = assay: Insecticidal activity against third-instar Spodoptera exigua larvae assessed as inhibition of body weight increase at 16 g/l measured from 24 hr to 48 hr; type: functional
Spodoptera exigua [47] = assay: Insecticidal activity against third-instar Spodoptera exigua larvae assessed as mortality at 8 g/l measured after 11 days; type: functional; conditions: 264 h

O=c1cc(-c2ccc(O)c(O)c2)oc2cc(O)cc(O)c12 [LUTEOLIN]
mortality at 2000 µg/mL (Spodoptera exigua [1]): 33.8% | mortality at 4000 µg/mL (Spodoptera exigua [2]): 48.5% | mortality at 2000 µg/mL (Spodoptera exigua [3]): 42.6% | Activity [4]: 45.3% | mortality at 16000 µg/mL (Spodoptera exigua [5]): 90.5% | Activity (Spodoptera exigua [6]): 66.67% | LC50 (Spodoptera exigua [7]): 3540 µg/mL (≈ 12.4 mM) | Activity (Spodoptera exigua [8]): 0.0743 g | mortality at 4000 µg/mL (Spodoptera exigua [9]): 61% | mortality at 4000 µg/mL (Spodoptera exigua [10]): 38% | Activity (Spodoptera exigua [11]): 43.33% | Activity (Spodoptera exigua [12]): 0.0898 g | Activity (Spodoptera exigua [13]): 90% | inhibition at 8000 µg/mL (Spodoptera exigua [14]): 56.8% | LC50 (Spodoptera exigua [15]): 8970 µg/mL (≈ 31.3 mM) | Activity (Spodoptera exigua [16]): 53.33% | Activity [17]: 67.2% | mortality at 8000 µg/mL (Spodoptera exigua [18]): 57.7% | mortality at 8000 µg/mL (Spodoptera exigua [19]): 47.3% | mortality at 8000 µg/mL (Spodoptera exigua [20]): 29.8% | Activity (Spodoptera exigua [21]): 0.0647 g | mortality at 8000 µg/mL (Spodoptera exigua [22]): 72.9% | mortality at 16000 µg/mL (Spodoptera exigua [23]): 33.2% | Activity (Spodoptera exigua [24]): 0.0905 g | mortality at 4000 µg/mL (Spodoptera exigua [25]): 57.4% | mortality at 2000 µg/mL (Spodoptera exigua [26]): 26.3% | mortality at 16000 µg/mL (Spodoptera exigua [27]): 84.1% | Activity (Spodoptera exigua [28]): 70% | Activity (Spodoptera exigua [29]): 83.33% | mortality at 2000 µg/mL (Spodoptera exigua [30]): 15.8% | Activity (Spodoptera exigua [31]): 36.67% | inhibition at 4000 µg/mL (Spodoptera exigua [32]): 49.6% | mortality at 4000 µg/mL (Spodoptera exigua [33]): 23.5% | inhibition [34]: Active | inhibition at 1000 µg/mL (Spodoptera exigua [35]): 38% | Activity (Spodoptera exigua [36]): 96.67% | Activity (Spodoptera exigua [37]): 0.0798 g | mortality at 16000 µg/mL (Spodoptera exigua [38]): 74.5% | mortality at 16000 µg/mL (Spodoptera exigua [39]): 60.6% | Activity (Spodoptera exigua [40]): 86.67% | LC50 (Spodoptera exigua [41]): 5560 µg/mL (≈ 19.4 mM) | inhibition at 2000 µg/mL (Spodoptera exigua [42]): 42.7% | Activity (Spodoptera exigua [43]): 36.67% | LC50 (Spodoptera exigua [44]): 2530 µg/mL (≈ 8.84 mM) | mortality at 2000 µg/mL (Spodoptera exigua [45]): 10.1% | inhibition at 16000 µg/mL (Spodoptera exigua [46]): 66.8% | mortality at 8000 µg/mL (Spodoptera exigua [47]): 77.7%
